Assay results reported in US20140343049A1, “DIHYDROFURAN DERIVATIVES AS INSECTICIDAL COMPOUNDS” (SYNGENTA PARTICIPATIONS AG, priority 2011, published 2014).

Key:
Assay type in all cases: in vivo
[1] = system: Spodoptera littoralis (Egyptian cotton leaf worm); assay: Spodoptera littoralis (systemic) test, compound in agar taken up by salad roots; conditions: 120 h, application rate 12.5 ppm, checked 5 days after infestation for mortality, repellent effect, feeding behavior, growth regulation
Text: (§1) Test compounds were applied by pipette into 24 well plates and mixed with agar. Salad seeds were placed on the agar and the multi well plate is closed by another plate which contains also agar. After 7 days the roots have absorbed the compound and the salad has grown into the lid plate. The salad leafs were now cut off into the lid plate. Spodoptera eggs were pipette through a plastic stencil on a humid gel blotting paper and the plate closed with it. The samples are checked for mortality, repellent effect, feeding behavior, and growth regulation 5 days after infestation. Application rate: 12.5 ppm
as §1, with “infestation.” for “infestation. Application rate: 12.5 ppm”

[2] = system: Spodoptera littoralis (Egyptian cotton leafworm); assay: Spodoptera littoralis cotton leaf disc spray test; conditions: foliar, 72 h, cotton leaf discs sprayed at 200 ppm, 5 L1 larvae, mortality, feeding behavior, growth regulation 3 days after treatment
Text: Cotton leaf discs were placed on agar in a 24-well microtiter plate and sprayed with test solutions at an application rate of 200 ppm. After drying, the leaf discs were infested with 5 L1 larvae. The samples were checked for mortality, feeding behavior, and growth regulation 3 days after treatment (DAT).

[3] = system: Heliothis virescens (tobacco budworm); assay: Heliothis virescens egg test on artificial diet; conditions: 96 h, 200 ppm (concentration in well 18 ppm), eggs 0-24 h old, 4 days, egg mortality, larval mortality, growth regulation
Method: Eggs (0-24 h old) were placed in 24-well microtiter plate on artificial diet and treated with test solutions at an application rate of 200 ppm (concentration in well 18 ppm) by pipetting. After an incubation period of 4 days, samples were checked for egg mortality, larval mortality, and growth regulation.

[4] = system: Plutella xylostella (diamond back moth); assay: Plutella xylostella L2 larvae test on artificial diet; conditions: 144 h, 200 ppm (concentration in well 18 ppm), 6 days, larval mortality and growth regulation
Method: 24-well microtiter plate (MTP) with artificial diet was treated with test solutions at an application rate of 200 ppm (concentration in well 18 ppm) by pipetting. After drying, the MTPs were infested with L2 larvae (7-12 per well). After an incubation period of 6 days, samples were checked for larval mortality and growth regulation.

[5] = system: Diabrotica balteata (corn root worm); assay: Diabrotica balteata L2 larvae test on artificial diet; conditions: 120 h, 200 ppm (concentration in well 18 ppm), 5 days, larval mortality and growth regulation
Method in brief: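 Artificial diet treated with test solution at 200 ppm or 12.5 ppm application rate (in-well concentration stated as 18 ppm), dried, then infested with 6-10 L2 larvae per well. Larval mortality and growth regulation scored after 5 days.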

[6] = system: Myzus persicae (green peach aphid); assay: Myzus persicae (sachet) mixed population test; conditions: 120 h, sucrose solution, application rate 12.5 ppm, mortality 5 days after infestation
Text: Test compounds were applied by pipette into 24 well plates and mixed with Sucrose solution. The plates were closed with a stretched Parafilm. A plastic stencil with 24 holes is placed onto the plate and infested pea seedlings were placed directly on the Parafilm. The infested plate is closed with a gel blotting paper and another plastic stencil and then turned upside down. 5 days after infestation the samples were checked on mortality. Application rate: 12.5 ppm.

[7] = system: Thrips tabaci (onion thrips); assay: Thrips tabaci sunflower leaf disc spray test; conditions: foliar, 168 h, sunflower leaf discs sprayed at 200 ppm, mixed ages, mortality after 7 days
Method: Sunflower leaf discs were placed on agar in a 24-well microtiter plate and sprayed with test solutions at an application rate of 200 ppm. […] After drying, the leaf discs were infested with a thrip population of mixed ages. After an incubation period of 7 days, samples were checked for mortality.

[8] = system: Tetranychus urticae (two-spotted spider mite); assay: Tetranychus urticae bean leaf disc spray test; conditions: foliar, 192 h, bean leaf discs sprayed at 200 ppm, mixed ages, egg, larval and adult mortality 8 days later
Method in brief: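 Leaf discs of bean on agar were sprayed at 200 ppm, dried, then infested with mixed-age mites. Egg, larval and adult mortality were scored 8 days later.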

Cc1cc(C2=CC(c3cc(Cl)cc(Cl)c3)(C(F)(F)F)OC2)ccc1C(=O)NCC(=O)NCC(F)(F)F (centres unmarked) [Compound A1, 4-[5-(3,5-Dichloro-phenyl)-5-trifluoromethyl-2,5-dihydro-furan-3-yl]-2-methyl-N-[(2,2,2-trifluoro-ethylcarbamoyl)-methyl]-benzamide]
≥ 80%: pest or weed control at 12.5 ppm [1] | pest or weed control at 200 ppm [2] | pest or weed control at 200 ppm [3] | pest or weed control at 200 ppm [4] | pest or weed control at 200 ppm [5] | pest or weed control at 12.5 ppm [6] | pest or weed control at 200 ppm [7] | pest or weed control at 200 ppm [8]

Cc1cc(C2=CC(c3cc(Cl)cc(Cl)c3)(C(F)(F)F)OC2)ccc1C(=O)NC1CS(=O)(=O)C1 (centres unmarked) [Compound A15]
≥ 80%: pest or weed control at 12.5 ppm [1] | pest or weed control at 200 ppm [2] | pest or weed control at 200 ppm [3] | pest or weed control at 200 ppm [4] | pest or weed control at 200 ppm [5] | pest or weed control at 12.5 ppm [6] | pest or weed control at 200 ppm [7] | pest or weed control at 200 ppm [8]

CCN1OC[C@H](NC(=O)c2ccc(C3=CC(c4cc(Cl)cc(Cl)c4)(C(F)(F)F)OC3)cc2C)C1=O (stereo partly drawn) [Compound A16, 4-[5-(3,5-Dichloro-phenyl)-5-trifluoromethyl-2,5-dihydro-furan-3-yl]-N—((S)-2-ethyl-3-oxo-isoxazolidin-4-yl)-2-methyl-benzamide]
≥ 80%: pest or weed control at 12.5 ppm [1] | pest or weed control at 200 ppm [2] | pest or weed control at 200 ppm [3] | pest or weed control at 200 ppm [4] | pest or weed control at 200 ppm [5] | pest or weed control at 12.5 ppm [6] | pest or weed control at 200 ppm [7] | pest or weed control at 200 ppm [8]

Cc1cc(C2=CC(c3cc(Cl)cc(Cl)c3)(C(F)(F)F)OC2)ccc1C(=O)NCCC1CSC1 (centres unmarked) [Compound A82]
≥ 80%: pest or weed control at 200 ppm [2] | pest or weed control at 200 ppm [3] | pest or weed control at 200 ppm [4] | pest or weed control at 200 ppm [5] | pest or weed control at 12.5 ppm [6] | pest or weed control at 200 ppm [7] | pest or weed control at 200 ppm [8]

Cc1nc(C2=CC(c3cc(Cl)cc(Cl)c3)(C(F)(F)F)OC2)ccc1C(=O)NCC(=O)NCC(F)(F)F (centres unmarked) [Compound C5]
≥ 80%: pest or weed control at 12.5 ppm [1] | pest or weed control at 200 ppm [2] | pest or weed control at 200 ppm [3] | pest or weed control at 200 ppm [4] | pest or weed control at 200 ppm [5] | pest or weed control at 12.5 ppm [6] | pest or weed control at 200 ppm [7] | pest or weed control at 200 ppm [8]

Cc1nc(C2=CC(c3cc(Cl)cc(Cl)c3)(C(F)(F)F)OC2)ccc1C(=O)NC1CS(=O)(=O)C1 (centres unmarked) [Compound C13]
≥ 80%: pest or weed control at 12.5 ppm [1] | pest or weed control at 200 ppm [2] | pest or weed control at 200 ppm [3] | pest or weed control at 200 ppm [4] | pest or weed control at 200 ppm [5] | pest or weed control at 12.5 ppm [6] | pest or weed control at 200 ppm [7] | pest or weed control at 200 ppm [8]

Cc1nc(C2=CC(c3cc(Cl)cc(Cl)c3)(C(F)(F)F)OC2)ccc1C(=O)NC1C[S+]([O-])C1 (centres unmarked) [Compound C22]
≥ 80%: pest or weed control at 200 ppm [2] | pest or weed control at 200 ppm [3] | pest or weed control at 200 ppm [4] | pest or weed control at 200 ppm [5] | pest or weed control at 12.5 ppm [6] | pest or weed control at 200 ppm [7] | pest or weed control at 200 ppm [8]

Cc1cc(C2=CC(c3cc(Cl)cc(Cl)c3)(C(F)(F)F)OC2)ccc1C(=O)NCC(F)(F)F (centres unmarked) [Compound D1]
≥ 80%: pest or weed control at 12.5 ppm [1] | pest or weed control at 200 ppm [7]

Cc1cc(C2=CO[C@@](c3cc(Cl)cc(Cl)c3)(C(F)(F)F)C2)ccc1C(=O)NCC(=O)NCC(F)(F)F [Compound D5, 4-[(2S)-2-(3,5-dichlorophenyl)-2-(trifluoromethyl)-3H-furan-4-yl]-2-methyl-N-[2-oxo-2-(2,2,2-trifluoroethylamino)ethyl]benzamide]
≥ 80%: pest or weed control at 12.5 ppm [1] | pest or weed control at 200 ppm [2] | pest or weed control at 200 ppm [3] | pest or weed control at 200 ppm [4] | pest or weed control at 200 ppm [5] | pest or weed control at 12.5 ppm [6] | pest or weed control at 200 ppm [7] | pest or weed control at 200 ppm [8]

Cc1cc(C2=CC(c3cc(Cl)cc(Cl)c3)(C(F)(F)F)OC2)ccc1C(=O)NCC1CCCO1 (centres unmarked) [Compound D8]
≥ 80%: pest or weed control at 12.5 ppm [1] | pest or weed control at 12.5 ppm [6] | pest or weed control at 200 ppm [7] | pest or weed control at 200 ppm [8]

Cc1cc(C2=CC(c3cc(Cl)cc(Cl)c3)(C(F)(F)F)OC2)ccc1C(=O)NCc1ccccc1F (centres unmarked) [Compound D10]
≥ 80%: pest or weed control at 200 ppm [2] | pest or weed control at 200 ppm [3] | pest or weed control at 200 ppm [4] | pest or weed control at 200 ppm [5] | pest or weed control at 12.5 ppm [6] | pest or weed control at 200 ppm [7] | pest or weed control at 200 ppm [8]

Cc1cc(C2=CC(c3cc(Cl)cc(Cl)c3)(C(F)(F)F)OC2)ccc1C(=O)NCc1ccccn1 (centres unmarked) [Compound D15]
≥ 80%: pest or weed control at 12.5 ppm [1] | pest or weed control at 200 ppm [2] | pest or weed control at 200 ppm [3] | pest or weed control at 200 ppm [4] | pest or weed control at 200 ppm [5] | pest or weed control at 12.5 ppm [6] | pest or weed control at 200 ppm [7] | pest or weed control at 200 ppm [8]

Cc1cc(C2=CC(c3cc(Cl)cc(Cl)c3)(C(F)(F)F)OC2)ccc1C(=O)NC1C[S+]([O-])C1 (centres unmarked) [Compound D20]
≥ 80%: pest or weed control at 12.5 ppm [1] | pest or weed control at 200 ppm [4] | pest or weed control at 200 ppm [5]

Cc1cc(C2=CC(c3cc(Cl)cc(Cl)c3)(C(F)(F)F)OC2)ccc1C(=O)NC1CSC1 (centres unmarked) [Compound D21]
≥ 80%: pest or weed control at 12.5 ppm [1] | pest or weed control at 200 ppm [4] | pest or weed control at 200 ppm [5]

Cc1cc(C2=COC(c3cc(Cl)cc(Cl)c3)(C(F)(F)F)C2)ccc1C(=O)N[C@@H]1CON(CC(F)(F)F)C1=O (stereo partly drawn) [Compound D25, 4-[2-(3,5-dichlorophenyl)-2-(trifluoromethyl)-3H-furan-4-yl]-2-methyl-N-[(4R)-3-oxo-2-(2,2,2-trifluoroethyl)isoxazolidin-4-yl]benzamide]
≥ 80%: pest or weed control at 200 ppm [2] | pest or weed control at 200 ppm [3] | pest or weed control at 200 ppm [4] | pest or weed control at 200 ppm [5] | pest or weed control at 12.5 ppm [6] | pest or weed control at 200 ppm [7] | pest or weed control at 200 ppm [8]

O=C(CNC(=O)c1ccc(C2=CC(c3cc(Cl)cc(Cl)c3)(C(F)(F)F)OC2)nc1Cl)NCC(F)(F)F (centres unmarked) [Compound F1, 2-Chloro-6-[5-(3,5-dichloro-phenyl)-5-trifluoromethyl-2,5-dihydro-furan-3-yl]-N-[(2,2,2-trifluoro-ethylcarbamoyl)-methyl]-nicotinamide]
≥ 80%: pest or weed control at 12.5 ppm [1] | pest or weed control at 200 ppm [2] | pest or weed control at 200 ppm [3] | pest or weed control at 200 ppm [4] | pest or weed control at 200 ppm [5] | pest or weed control at 12.5 ppm [6] | pest or weed control at 200 ppm [7] | pest or weed control at 200 ppm [8]
